Assay results reported in article PMC6130714, “The α-amylase and α-glucosidase inhibitory activities of the dichloromethane extracts and constituents of Ferulago bracteata roots” (Pharmaceutical Biology, 2017).
In brackets after ≈: the same amount, converted by molar mass. Where two headings read alike, the source gives them in different places.

Assays:
[1] = molecular target: α-Glucosidase; test: α-Glucosidase inhibitory activity (p-NPG substrate, 96-well plate); type: biochemical; settings: for α-Glucosidase inhibition (%): mean of three replicates
Procedure: α-Glucosidase inhibitory activity was established by using a 96-well microtiter plate in accordance with the described method (Tao et al. […] Samples were dissolved in dimethyl sulfoxide (DMSO) and all samples (20 µL) together with the enzyme solution (20 µL) were mixed in the plate. Afterwards, the substrate (40 µL) was added for initiation of the reaction and the mixture was incubated at 37 °C for 40 min. After incubation is complete, 0.2 M sodium carbonate (80 µL) in phosphate buffer (pH 6.8) was added to all wells in order to quench the reaction. The amount of released p-nitrophenol (pNP) was measured at 405 nm using a 96-well microplate reader. Each assay for all samples was carried out in triplicate. […] All results are expressed as mean ± SE and differences between means were statistically analyzed using one-way analysis of ANOVA followed by Bonferroni’s complementary analysis, with p < 0.05 considered to indicate statistical significance.

[2] = test system: α-Glucosidase; settings: cited from earlier work; for α-glucosidase inhibitory activity (in words): compared to acarbose, ref Luo et al. [2012]
[3] = test system: α-amylase; test: α-Amylase inhibitory activity (starch, dinitrosalicylic acid); type: biochemical; settings: concentration 1 mg/mL
Procedure: α-Amylase inhibitory activity was established in accordance with the reported method (Nampoothiri et al. [2011]) with slight modifications. One percent starch solution (100 µL) in 20 mM sodium phosphate buffer (pH 6.9 with 6 mM sodium chloride) and sample solutions (100 µL) were incubated at 25 °C for 10 min in 24-well microplate. After incubation, 100 µL α-amylase solution (0.5 mg/mL) was added to each well and the reaction mixtures were incubated at 25 °C for 10 min. In order to stop the reaction after the incubation, dinitrosalicylic acid color reagent (200 µL) was added and then the microplate was incubated in a boiling water bath for 5 min and cooled at room temperature. 50 µL was taken from each well and then was added to 96-well microplate. The reaction mixture was diluted by adding 200 µL distilled water and absorbance was measured at 540 nm. Each assay for all samples was carried out in triplicate. Percentage inhibitions of all samples were calculated using the equation at following: Inhibition %=1-ΔAsample /ΔAcontrol×100
All results are expressed as mean ± SE and differences between means were statistically analyzed using one-way analysis of ANOVA followed by Bonferroni’s complementary analysis, with p < 0.05 considered to indicate statistical significance.

IC50 value (α-glucosidase) [1]	α-Glucosidase inhibition (%) ([1]; concentration 2000 µg/mL)	α-Glucosidase inhibition (%) ([1]; concentration 5000 µg/mL)	times more effective than acarbose against α-glucosidase ([1]; ratio of IC50 values vs acarbose)	SMILES	α-glucosidase inhibitory activity (in words) [2]	α-glucosidase IC50 value ([2]; at 0.5 mg/mL, ref Ayyasamy & Rajamanickam 2015)	α-Glucosidase inhibition (%) ([2]; at 1000 µg/mL, ref Shalaby et al. [2014])	α-amylase inhibition [3]
420 µg/mL (≈ 1.2 mM)	64.93 ± 2.06%	94.57 ± 0.05%	11 times	CC(C)(OC(=O)c1ccccc1)[C@@H]1Cc2cc3ccc(=O)oc3cc2O1 [Felamidin, felamidin]				
950 µg/mL (≈ 3.89 mM)	84.31 ± 1.72%	93.31 ± 0.29%		COc1ccc2ccc(=O)oc2c1CC=C(C)C [Osthole, osthole]				
890 µg/mL (≈ 3.64 mM)	81.58 ± 1.15%	87.95 ± 1.07%		COc1cc2oc(=O)ccc2cc1CC=C(C)C [Suberosin, suberosin]				
6120 µg/mL (≈ 28.3 mM)	39.71 ± 2.44%	42.26 ± 0.43%		COc1c2ccoc2cc2oc(=O)ccc12 [Bergapten, bergapten]	too low to compare to that of acarbose			
20010 µg/mL (≈ 57.8 mM)	7.84 ± 0.71%	12.30 ± 0.36%		CC(C)=CC(=O)OC(Cc1cc2ccc(=O)oc2cc1O)C(C)(C)O (centres unmarked) [Grandivitinol, grandivitinol]				
	66.86 ± 0.37%	77.22 ± 0.44%		CC(C)(O)C(Cc1cc2ccc(=O)oc2cc1O)OC(=O)c1ccccc1 (centres unmarked) [Peucedanol-2'-benzoate, peucedanol-2′-benzoate]				
1860 µg/mL (≈ 5.66 mM)	51.95 ± 0.01%	68.23 ± 0.39%		CC(C)=CC(=O)OC(C)(C)C1Cc2cc3ccc(=O)oc3cc2O1 (centres unmarked) [Prantschimgin, prantschimgin]				

SMILES	IC50 value (α-glucosidase) [1]	α-Glucosidase inhibition (%) ([1]; concentration 2000 µg/mL)	α-Glucosidase inhibition (%) ([1]; concentration 5000 µg/mL)	times more effective than acarbose against α-glucosidase ([1]; ratio of IC50 values vs acarbose)	α-glucosidase inhibitory activity (in words) [2]	α-glucosidase IC50 value ([2]; at 0.5 mg/mL, ref Ayyasamy & Rajamanickam 2015)	α-Glucosidase inhibition (%) ([2]; at 1000 µg/mL, ref Shalaby et al. [2014])	α-amylase inhibition [3]
COc1c2occc2cc2ccc(=O)oc12 [Xanthotoxin, xanthotoxin]	5380 µg/mL (≈ 24.9 mM)	37.95 ± 8.64%	45.76 ± 4.82%		too low to compare to that of acarbose			
O=c1ccc2ccc(O)cc2o1 [Umbelliferone, umbelliferone]	9320 µg/mL (≈ 57.5 mM)	8.84 ± 0.02%	10.27 ± 0.49%			547 µg/mL		
CC(C)=CCOc1c2occc2cc2ccc(=O)oc12 [Imperatorin, imperatorin]	1230 µg/mL (≈ 4.55 mM)	63.07 ± 0.69%	88.97 ± 0.88%		too low to compare to that of acarbose		69.66 ± 3.67%	
C[C@H]1O[C@H](O[C@H]2[C@H](O)[C@@H](O)[C@@H](O[C@H]3[C@H](O)[C@@H](O)C(O)O[C@@H]3CO)O[C@@H]2CO)[C@H](O)[C@@H](O)[C@@H]1N[C@H]1C=C(CO)[C@@H](O)[C@H](O)[C@H]1O (some centres unmarked) [Acarbose, acarbose, reference compound]		29.43 ± 1.71%	50.81 ± 2.51%					82.28%
